In patent publication US6387655B1, “Excitatory amino acid receptor protein and related nucleic acid compounds” (Eli Lilly and Company, priority 1995, dated 2002):
Where two headings read alike, the source gives them in different places.

Target: T1, human HmGluR3 (Homo sapiens, UniProt Q14832)
T1 construct: expressed in transfected cells; host or cells: RGT (RGT-18) cells, i.e. AV12 cells stably expressing the rat glutamate transporter GLAST
Test: Inhibition of forskolin-stimulated cAMP synthesis (adenylate cyclase activity) in RGT cells stably transfected with pGTh-HmGluR3
Type: cell-based
Procedure: In an especially preferred embodiment of this invention an assay measuring the inhibition of forskolin-stimulated cAMP synthesis was performed. The inhibition of cAMP synthesis is known to positively correlated with the addition of glutamate to cells containing certain types of metabotropic receptors.
Adenylate cyclase activity was determined in initial experiments in transfected mammalian cells, using standard techniques. See. e.g., N. Adham, et al., supra,; R. L. Weinshank, et al., Proceedings of the National Academy of Sciences (USA), 89:3630-3634 (1992), and the references cited therein.
As noted above, mammalian cells (the cell line RGT) were stably transfected with the plasmid pGTh-HmGluR3, containing human HmGluR3 cDNA inserted in the plasmid vector pGTh, as depicted in FIG. 2. The cells were maintained in a medium consisting of Dulbecco's Modified Eagle's Medium (DMEM) containing 5% dialyzed fetal calf serum, 10 mM HEPES buffer (pH 7.3), 1 mM sodium pyruvate, 1 mM glutamine, and 200 μg/ml hygromycin.
For the assay the cells were disassociated from stock culture flasks with trypsin, and planted in 24-well plastic culture dishes (15 mm wells) at a density of 500-700,000 cells per well using the same culture medium. After twenty four hours incubation in a humidified carbon dioxide incubator, the cell monolayers are washed with buffer (Dulbecco's phosphate-buffered saline containing 0.5 mM isobutylmethylxanthine and 3 mM glucose) and then incubated in the same buffer at 37° C. for 30 minutes. The monolayers are then washed four additional times with buffer.
Drugs and forskolin, or forskolin alone, dissolved in buffer, was added after the final wash. After incubating for 20 minutes at 37° C., 0.5 ml of 8 mM EDTA was added to each well. The plates were then placed in a boiling water bath for about four minutes. The supernatant fluids are then recovered from the wells and lyophilized. Cyclic adenosinemonophosphate (cAMP) determinations were carried out on the lyophilized samples using commercially available radioimmunoassay kits, following the manufacturer's instructions. The cAMP level in wells containing drug was compared to the forskolin controls.

[1] = RGT cells expressing HmGluR3, cAMP by radioimmunoassay versus forskolin controls, 20 minutes at 37° C., read-out: EC50 (potencies of selected agonists for HmGluR3 expressed in RGT cells)

T1 sequence (Q14832 23-879): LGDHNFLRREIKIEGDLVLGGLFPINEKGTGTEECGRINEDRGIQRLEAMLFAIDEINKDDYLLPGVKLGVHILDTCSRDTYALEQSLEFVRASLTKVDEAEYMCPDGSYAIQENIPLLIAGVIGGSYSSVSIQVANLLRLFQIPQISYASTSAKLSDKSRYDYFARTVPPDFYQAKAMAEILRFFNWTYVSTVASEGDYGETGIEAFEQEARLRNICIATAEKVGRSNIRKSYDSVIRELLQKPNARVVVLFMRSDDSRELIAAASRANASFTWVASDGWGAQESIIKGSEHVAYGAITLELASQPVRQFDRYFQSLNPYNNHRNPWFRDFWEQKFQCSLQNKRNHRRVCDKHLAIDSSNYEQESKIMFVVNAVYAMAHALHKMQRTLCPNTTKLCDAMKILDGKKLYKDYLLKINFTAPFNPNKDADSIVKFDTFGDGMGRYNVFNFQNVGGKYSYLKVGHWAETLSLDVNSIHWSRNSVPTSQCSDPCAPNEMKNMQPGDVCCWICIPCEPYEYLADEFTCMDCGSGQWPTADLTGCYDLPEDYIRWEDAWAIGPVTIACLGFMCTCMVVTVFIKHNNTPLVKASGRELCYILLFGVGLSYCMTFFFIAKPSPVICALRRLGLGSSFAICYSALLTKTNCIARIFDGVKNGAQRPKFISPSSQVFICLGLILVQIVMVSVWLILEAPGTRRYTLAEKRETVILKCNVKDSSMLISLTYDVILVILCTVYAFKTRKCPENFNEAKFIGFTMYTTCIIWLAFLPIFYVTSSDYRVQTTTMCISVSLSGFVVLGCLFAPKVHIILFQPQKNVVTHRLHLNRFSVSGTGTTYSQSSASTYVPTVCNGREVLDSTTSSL

Row | Structure (SMILES) | EC50 | EC50 [1]
1 | NC1(C(=O)O)CCC(C(=O)O)C1 (stereo not drawn) [1S,3R-1-aminocyclopentant-1,3-dicarboxylic acid] | 2230 nM | 
2 | NC1(C(=O)O)CNC(C(=O)O)C1 (stereo not drawn) [2R,4R-4-aminopyrrolidine-2,4-dicarboxylate] |  | 550 nM
3 | N[C@H](C(=O)O)C1CC1C(=O)O (stereo partly drawn) [L-2-(carboxycyclopropyl)glycine-I] |  | 12 nM
4 | N[C@@H](CCC(=O)O)C(=O)O [L-Glutamate, 1-aminopropane-1,3-dicarboxylic acid] | 5380 nM | 
